Measured values reported in article PMC12439141, “Self-Assembling Hydrogels of Naproxen-Conjugated Peptides for Osteoarthritis Treatment” (Theranostics, 2025).

Experiments:
[1] = tested on: LPS-stimulated RAW264.7 cells; test: ELISA quantification of PGE2; format: cell-based, mouse; conditions: 400 µM, 6 h, 12 h, n = 3
From the text: Figure 4 COX-2 inhibition of NpxFFK. (A) molecular docking of COX-2 (PDB ID: 6COX) with NpxFFK. (B) Binding of NpxFFK with amino acid residues in the active pocket of COX-2. (C) Schematic representation of the anti-inflammatory mechanism of Npx and the peptide NpxFFK. […] Scale bars represent 200 µm. […] The blank groups in panel D-G referred to the RAW264.7 cells without stimulation of LPS.

[2] = DPPH free radical scavenging test; conditions: PBS (pH 7.2), 400 µM, 2 h, 25 °C, absorbance 517 nm, n = 3
Method: (§1) DPPH free radical scavenging test
(§2) DPPH (2, 2-Diphenyl -1-[…]) radical solution (0.58 mg/mL) was prepared by dissolving DPPH radical in anhydrous ethanol. Briefly, 6mg of […]
(§3) solution which were then incubated in dark for 2 h at 25°C. The absorbance of the mixed solution at 517 nm was measured using an enzyme-labeled instrument. The scavenging ability was calculated as DPPH free radical scavenging rate (%) = [(A0-A1)/A0] × 100%, where A0 is the absorbance of DPPH free radical solution, A1 is the absorbance of sample group. The experiment was repeated three times for each sample.
(§4) ABTS·+ free radical scavenging test […]
(§5) free radical solution, and then incubated at 25 °C for 30 mins in dark. The absorbance at 734 nm was measured using an enzyme-labeled instrument.
(§6) ABTS+ free radical scavenging activity is calculated according to the following formula: ABTS+ free radical scavenging rate (%) = [(A0-A1)/A0] × 100%, where A0 is the absorbance of ABTS+ free radical solution, and A1 is the absorbance of sample group. […]
(§7) Figure S14. Quantitative analysis of immunofluorescent staining of macrophages in Figure 5A and 5B. […]
(§8) Figure S16. Quantitative analysis of ROS fluorescent intensities (A) in Figure 5D, and fluorescent ratio of JC-1 in aggregate to monomer (B) in Figure 5E. […]

[3] = Zeta potential measurements; format: physicochemical; conditions: 400 µM; pH:7.2 (Figure 2F legend), text says physiological pH 7.4
From the text: Scale bars represent 200 nm.
Under physiological conditions, glutamic acid carries a negative charge, while histidine, lysine, and arginine carry positive charges.

[4] = ABTS+ free radical scavenging test; conditions: PBS (pH 7.2), 400 µM, 30 mins, 25 °C, absorbance 734 nm, n = 3
Method: as §1, §2, §3, §4, §5, §6, §7, §8

[5] = TEM imaging of assemblies; format: physicochemical; conditions: TEM images
Method: (C) FTIR spectra of NpxFFR (light green), NpxFFK (orange), NpxFFH (dark green), NpxFFE (purple) and Npx (medium spring green). (D) Hydrogel formation of Npx-peptide conjugates at 20 mg/mL concentration in ddH2O. […] (F) Zeta potential measurements of 400 µM Npx-peptide conjugates at pH:7.2. (G) TEM images of Npx and Npx-peptide conjugates. Scale bars represent 200 nm.

OA rat model [6] = test: Footprint gait analysis in MIA-induced OA rats; format: in vivo, SD rats; conditions: IA injection, 100 mg/kg, 2 weeks
Method: The OA model was induced by local injection of 50 µL/1mg sodium iodoacetate (MIA) into the joint cavity of each rat. Rats injected with saline were treated as the sham group (n = 6). […] Each group contained 6 rats. 50 µL drugs were injected locally at day 0 and day 14, respectively. After 14 days of treatment, the rats were examined by indentation-collecting gait analysis, after which the rats were euthanized with isoflurane, and the knee joints were sampled for gross morphological observation. After 28 days of treatment, sampling was performed for micro-CT analysis, histological staining and immunohistochemistry.
The cardboard is laid flat on the floor. Both forelimbs of the rats were covered with blue ink and both hind legs with red ink, ensuring that the movements of the animals were as clear as possible. The sides of the runway consisted of cardboard, and the width was rationalized according to the weight and size of the rat. The room environment was kept quiet and the rats were placed on one side of the runway and allowed to pass freely. Before the start of the experiment, the rats were given two consecutive days of behavioral acclimatization training.

C28/I2 chondrocytes = test: Chondrocyte proliferation (Calcein-AM staining and MTT quantification); format: cell-based, human; conditions: C28/I2 chondrocytes, 1, 2 and 3 days, compared to non-treated control
[7] = tested on: LPS-stimulated RAW264.7 cells; test: COX-2 and pro-inflammatory factor expression (qRT-PCR, immunofluorescence); format: cell-based, mouse; conditions: RAW264.7, 1 µg/mL LPS, 400 µM; 6 h, 12 h (PCR), 12 h or 24 h (immunofluorescence)
Method: After treatment, cells were harvested and total RNA was extracted using a total RNA purification kit (SparkJade, China), and cDNA was obtained from total RNA by a reverse transcription kit (SparkJade). Finally, qRT-PCR was performed using SYBR Green qPCR premix (SparkJade) on QuantGene 9600 real-time PCR (Bioer, Hangzhou, China). 2 Calculation of Relative Gene Expression-ΔΔCT method was used, and GAPDH was used as an internal reference gene.
Immunofluorescence staining was performed following a general procedure. After treatment, cells were fixed with 4% paraformaldehyde for 20 min, and permeabilized in 0.5% Triton X-100 for 5 min. 10% goat serum was used to block non-specific binding. Cells were then incubated with primary antibodies overnight. Then cells were incubated with fluorescently labeled secondary antibody for 1 h. […] For assessing RAW264.7 macrophage polarization, permeabilization procedure is not needed; anti-CD86 and anti-CD163 primary antibodies were used for identifying M1 macrophage or M2 macrophage, respectively. Primary antibodies included: anti-CD86 (1:300), anti-CD163 (1:300), anti-COX2 (1:300) and anti-COL2 (1:300). Cy3 or FITC labeled secondary antibodies were used for fluorescent imaging.

OA rat model [8] = test: Immunofluorescence and immunohistochemistry of joint sections in OA rats; format: in vivo, SD rats; conditions: 100 mg/kg IA, 4 weeks
Method: The knee joints were fixed in 4% paraformaldehyde, decalcified for 4 weeks, and embedded in paraffin for histological evaluation. Subsequently, the samples were sectioned and stained with hematoxylin and eosin (H&E) as well as […]/Fast Green. An enhanced Mankin scoring system was used to assess the pathologic status of the knee joint. Sections were incubated overnight at 4 °C with primary antibodies and further stained with a fluorescently labeled secondary antibody or 3,3'-diaminobenzidine (DAB)-tagged secondary antibody for immunohistochemical analysis.

SMILES: COc1ccc2cc([C@H](C)C(=O)O)ccc2c1 [Npx, naproxen]
- PGE2 production [1]: reduced PGE2 production
- DPPH radical scavenging activity [2]: neglectable radical scavenge activity
- Zeta Potential [3]: -20.3 mV
- ABTS+ radical scavenging activity [4]: neglectable radical scavenge activity
- Morphology of assemblies (TEM) [5]: uneven aggregates
- Stride length (OA rat model [6]; sham 12.83 cm, saline 7.57 cm): 9.42 cm
- Hindpaw contact area (OA rat model [6]; versus sham and saline): partial improvement
- Effect on chondrocyte proliferation (C28/I2 chondrocytes): the proliferation decreased over time
- COX-2 expression at gene level and protein level [7]: downregulated COX-2 expression
- Expression of COX-2, TNF-α and IL-1β in joint sections (OA rat model [8]): significantly reduced the expression of COX-2
